Assay results published in ChEMBL document CHEMBL3991601, “The target landscape of clinical kinase drugs” (Science, 2017).
Active and inactive are the calls of the source.

Key:
[1] = biological target: T1, AarF domain-containing protein kinase 1 (Homo sapiens, UniProt Q86TW2)
T1 sequence (Q86TW2 whole entry): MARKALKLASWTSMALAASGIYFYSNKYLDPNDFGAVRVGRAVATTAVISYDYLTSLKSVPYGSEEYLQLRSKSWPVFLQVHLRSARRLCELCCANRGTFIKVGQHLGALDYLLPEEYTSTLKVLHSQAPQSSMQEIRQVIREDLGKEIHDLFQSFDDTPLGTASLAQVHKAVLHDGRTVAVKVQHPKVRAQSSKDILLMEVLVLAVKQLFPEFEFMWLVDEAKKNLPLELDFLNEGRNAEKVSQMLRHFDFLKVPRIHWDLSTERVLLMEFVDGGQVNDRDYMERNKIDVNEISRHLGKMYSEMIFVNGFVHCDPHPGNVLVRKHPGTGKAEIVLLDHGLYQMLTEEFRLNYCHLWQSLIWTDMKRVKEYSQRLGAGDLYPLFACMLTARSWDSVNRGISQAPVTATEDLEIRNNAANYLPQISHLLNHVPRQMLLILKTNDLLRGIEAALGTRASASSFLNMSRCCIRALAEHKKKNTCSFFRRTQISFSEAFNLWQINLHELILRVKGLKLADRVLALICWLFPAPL

[2] = biological target: Serine/threonine-protein kinase MRCK alpha (Homo sapiens, UniProt Q5VT25)
Sequence of Serine/threonine-protein kinase MRCK alpha (Q5VT25 whole entry): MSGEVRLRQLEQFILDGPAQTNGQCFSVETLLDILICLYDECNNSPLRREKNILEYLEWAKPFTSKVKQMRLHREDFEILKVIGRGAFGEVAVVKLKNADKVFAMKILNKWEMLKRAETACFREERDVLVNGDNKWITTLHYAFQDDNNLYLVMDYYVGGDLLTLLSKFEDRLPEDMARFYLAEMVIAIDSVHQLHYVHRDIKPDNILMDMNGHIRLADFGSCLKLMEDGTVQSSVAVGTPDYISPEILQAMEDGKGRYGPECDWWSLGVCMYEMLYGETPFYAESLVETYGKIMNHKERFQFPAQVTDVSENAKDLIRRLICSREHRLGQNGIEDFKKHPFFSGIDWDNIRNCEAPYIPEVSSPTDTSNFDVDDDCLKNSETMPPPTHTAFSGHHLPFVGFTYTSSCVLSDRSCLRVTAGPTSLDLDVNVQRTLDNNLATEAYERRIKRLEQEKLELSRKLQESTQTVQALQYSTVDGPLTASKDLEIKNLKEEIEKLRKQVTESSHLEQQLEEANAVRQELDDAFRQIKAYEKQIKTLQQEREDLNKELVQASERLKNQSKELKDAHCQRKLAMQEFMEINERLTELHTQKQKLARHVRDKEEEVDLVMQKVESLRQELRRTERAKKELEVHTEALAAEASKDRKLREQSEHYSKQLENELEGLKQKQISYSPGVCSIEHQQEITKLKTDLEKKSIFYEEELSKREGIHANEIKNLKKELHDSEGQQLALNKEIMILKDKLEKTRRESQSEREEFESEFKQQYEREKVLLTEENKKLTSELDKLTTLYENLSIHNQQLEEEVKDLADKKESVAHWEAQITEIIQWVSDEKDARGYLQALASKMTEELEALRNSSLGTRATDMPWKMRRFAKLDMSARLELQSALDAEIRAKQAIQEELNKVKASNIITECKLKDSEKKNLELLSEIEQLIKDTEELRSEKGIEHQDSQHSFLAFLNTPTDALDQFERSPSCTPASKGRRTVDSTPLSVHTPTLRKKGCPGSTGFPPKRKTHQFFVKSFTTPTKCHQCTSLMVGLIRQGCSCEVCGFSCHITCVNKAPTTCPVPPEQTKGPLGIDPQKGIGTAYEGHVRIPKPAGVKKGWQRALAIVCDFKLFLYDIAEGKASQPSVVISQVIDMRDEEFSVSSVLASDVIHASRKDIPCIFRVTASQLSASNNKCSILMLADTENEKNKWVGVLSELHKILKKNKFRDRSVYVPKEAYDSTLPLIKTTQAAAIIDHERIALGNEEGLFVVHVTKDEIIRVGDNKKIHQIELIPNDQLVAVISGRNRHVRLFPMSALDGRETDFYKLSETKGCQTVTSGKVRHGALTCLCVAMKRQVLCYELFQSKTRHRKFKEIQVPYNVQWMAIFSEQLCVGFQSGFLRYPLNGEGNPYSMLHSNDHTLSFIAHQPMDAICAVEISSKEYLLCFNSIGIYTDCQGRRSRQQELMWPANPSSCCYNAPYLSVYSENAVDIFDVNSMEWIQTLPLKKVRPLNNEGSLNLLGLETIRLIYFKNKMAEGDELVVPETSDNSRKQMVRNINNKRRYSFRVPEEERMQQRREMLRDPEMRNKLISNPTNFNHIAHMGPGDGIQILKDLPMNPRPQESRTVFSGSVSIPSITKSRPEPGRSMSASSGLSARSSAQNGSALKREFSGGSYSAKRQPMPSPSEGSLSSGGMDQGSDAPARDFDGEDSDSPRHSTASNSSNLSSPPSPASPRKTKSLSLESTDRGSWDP

[3] = biological target: Casein kinase II subunit alpha' (Homo sapiens, UniProt P19784)
Sequence of Casein kinase II subunit alpha' (P19784 whole entry): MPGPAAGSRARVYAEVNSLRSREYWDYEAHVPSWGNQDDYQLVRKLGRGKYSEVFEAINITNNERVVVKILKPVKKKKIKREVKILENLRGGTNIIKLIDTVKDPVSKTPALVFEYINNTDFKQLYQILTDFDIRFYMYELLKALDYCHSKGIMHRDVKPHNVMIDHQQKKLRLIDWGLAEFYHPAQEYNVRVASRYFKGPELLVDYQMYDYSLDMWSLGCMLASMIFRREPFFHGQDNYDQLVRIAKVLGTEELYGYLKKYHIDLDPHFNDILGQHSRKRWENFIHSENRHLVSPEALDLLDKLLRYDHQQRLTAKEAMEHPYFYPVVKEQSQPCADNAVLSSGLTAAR

[4] = biological target: Ephrin type-A receptor 5 (Homo sapiens, UniProt P54756)
Sequence of Ephrin type-A receptor 5 (P54756 whole entry): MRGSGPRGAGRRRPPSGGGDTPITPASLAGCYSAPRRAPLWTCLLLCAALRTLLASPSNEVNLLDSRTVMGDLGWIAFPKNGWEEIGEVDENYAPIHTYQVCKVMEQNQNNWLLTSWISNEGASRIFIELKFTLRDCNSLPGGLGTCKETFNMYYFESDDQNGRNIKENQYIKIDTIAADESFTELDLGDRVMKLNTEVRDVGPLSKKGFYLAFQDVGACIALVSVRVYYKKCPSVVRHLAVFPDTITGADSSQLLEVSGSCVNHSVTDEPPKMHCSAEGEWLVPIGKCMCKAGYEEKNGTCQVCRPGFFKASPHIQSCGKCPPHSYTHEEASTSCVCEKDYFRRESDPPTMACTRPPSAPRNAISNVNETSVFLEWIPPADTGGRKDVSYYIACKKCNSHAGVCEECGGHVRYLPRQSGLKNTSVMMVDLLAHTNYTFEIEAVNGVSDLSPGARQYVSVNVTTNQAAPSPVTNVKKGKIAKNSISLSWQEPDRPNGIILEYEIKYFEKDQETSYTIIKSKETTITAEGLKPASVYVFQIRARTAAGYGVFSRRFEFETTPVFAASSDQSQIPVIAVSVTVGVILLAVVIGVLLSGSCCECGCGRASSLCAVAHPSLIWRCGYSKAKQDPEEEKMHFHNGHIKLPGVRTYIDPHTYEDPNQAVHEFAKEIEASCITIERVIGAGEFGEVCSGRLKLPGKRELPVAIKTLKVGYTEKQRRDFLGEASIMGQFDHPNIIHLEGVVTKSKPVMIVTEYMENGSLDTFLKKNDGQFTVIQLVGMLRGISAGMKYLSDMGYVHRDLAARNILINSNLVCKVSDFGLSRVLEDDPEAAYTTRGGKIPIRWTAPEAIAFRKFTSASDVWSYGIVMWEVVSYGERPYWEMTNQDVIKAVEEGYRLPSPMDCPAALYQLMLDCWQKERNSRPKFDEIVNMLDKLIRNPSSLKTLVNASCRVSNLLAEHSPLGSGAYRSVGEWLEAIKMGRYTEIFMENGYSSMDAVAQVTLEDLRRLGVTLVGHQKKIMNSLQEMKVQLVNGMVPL

[5] = biological target: Guanine nucleotide-binding protein G(i) subunit alpha-2 (Homo sapiens, UniProt P04899)
Sequence of Guanine nucleotide-binding protein G(i) subunit alpha-2 (P04899 whole entry): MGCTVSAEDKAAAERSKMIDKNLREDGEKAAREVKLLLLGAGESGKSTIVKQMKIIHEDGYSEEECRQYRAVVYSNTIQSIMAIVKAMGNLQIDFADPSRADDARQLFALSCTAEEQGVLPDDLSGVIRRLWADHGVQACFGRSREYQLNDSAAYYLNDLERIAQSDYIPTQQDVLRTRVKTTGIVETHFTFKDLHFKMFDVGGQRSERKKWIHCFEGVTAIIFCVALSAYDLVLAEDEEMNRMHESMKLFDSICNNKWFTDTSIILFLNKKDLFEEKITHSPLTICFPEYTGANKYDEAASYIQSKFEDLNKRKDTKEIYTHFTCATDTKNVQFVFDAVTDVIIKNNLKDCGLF

[6] = biological target: T2, Heme oxygenase 2 (Homo sapiens, UniProt P30519)
T2 sequence (P30519 whole entry): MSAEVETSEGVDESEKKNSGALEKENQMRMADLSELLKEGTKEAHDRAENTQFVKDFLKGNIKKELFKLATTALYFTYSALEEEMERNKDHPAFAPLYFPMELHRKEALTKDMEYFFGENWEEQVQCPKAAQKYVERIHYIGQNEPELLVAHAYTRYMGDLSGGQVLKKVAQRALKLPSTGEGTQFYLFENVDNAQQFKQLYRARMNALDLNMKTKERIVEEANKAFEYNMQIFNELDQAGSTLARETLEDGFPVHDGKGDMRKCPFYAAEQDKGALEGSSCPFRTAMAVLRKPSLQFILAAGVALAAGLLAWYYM

[7] = biological target: T3, DNA replication licensing factor MCM4 (Homo sapiens, UniProt P33991)
T3 sequence (P33991 whole entry): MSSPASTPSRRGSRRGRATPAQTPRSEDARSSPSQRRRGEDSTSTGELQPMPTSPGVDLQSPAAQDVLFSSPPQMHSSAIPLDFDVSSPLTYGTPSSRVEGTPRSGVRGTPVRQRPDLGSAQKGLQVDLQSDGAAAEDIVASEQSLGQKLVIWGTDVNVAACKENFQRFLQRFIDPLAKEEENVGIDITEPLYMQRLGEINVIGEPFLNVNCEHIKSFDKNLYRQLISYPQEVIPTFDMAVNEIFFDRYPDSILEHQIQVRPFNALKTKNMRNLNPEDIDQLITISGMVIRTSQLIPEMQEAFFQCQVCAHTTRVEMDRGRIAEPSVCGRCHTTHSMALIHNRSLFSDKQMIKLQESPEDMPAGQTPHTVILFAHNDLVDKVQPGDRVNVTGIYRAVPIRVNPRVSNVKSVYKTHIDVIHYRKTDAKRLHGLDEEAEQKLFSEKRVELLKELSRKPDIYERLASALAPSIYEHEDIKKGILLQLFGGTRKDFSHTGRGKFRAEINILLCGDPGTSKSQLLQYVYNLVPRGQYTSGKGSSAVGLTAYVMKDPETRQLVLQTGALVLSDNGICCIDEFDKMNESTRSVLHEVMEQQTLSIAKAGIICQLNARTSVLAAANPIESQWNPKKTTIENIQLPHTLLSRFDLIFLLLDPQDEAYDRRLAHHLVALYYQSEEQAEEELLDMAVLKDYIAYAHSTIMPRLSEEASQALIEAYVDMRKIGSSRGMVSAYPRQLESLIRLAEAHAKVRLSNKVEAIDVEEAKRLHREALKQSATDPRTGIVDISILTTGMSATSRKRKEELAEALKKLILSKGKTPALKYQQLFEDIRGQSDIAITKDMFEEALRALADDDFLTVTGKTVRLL

[8] = biological target: T4, Serine/threonine-protein kinase NLK (Homo sapiens, UniProt Q9UBE8)
T4 sequence (Q9UBE8 whole entry): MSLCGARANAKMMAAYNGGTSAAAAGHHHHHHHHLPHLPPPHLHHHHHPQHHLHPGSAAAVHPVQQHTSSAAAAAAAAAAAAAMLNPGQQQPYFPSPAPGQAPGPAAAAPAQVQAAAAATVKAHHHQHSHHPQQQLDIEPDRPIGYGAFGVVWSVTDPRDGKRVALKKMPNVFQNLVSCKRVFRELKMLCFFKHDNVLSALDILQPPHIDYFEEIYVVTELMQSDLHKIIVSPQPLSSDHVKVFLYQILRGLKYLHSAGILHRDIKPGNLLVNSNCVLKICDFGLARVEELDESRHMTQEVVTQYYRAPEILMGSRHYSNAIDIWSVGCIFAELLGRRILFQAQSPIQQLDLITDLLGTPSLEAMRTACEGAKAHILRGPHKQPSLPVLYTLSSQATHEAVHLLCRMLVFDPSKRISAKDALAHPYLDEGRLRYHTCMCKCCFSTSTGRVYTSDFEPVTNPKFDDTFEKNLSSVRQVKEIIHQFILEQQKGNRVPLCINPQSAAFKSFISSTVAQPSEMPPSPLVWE

[9] = biological target: Protein kinase C beta type (Homo sapiens, UniProt P05771)
Sequence of Protein kinase C beta type (P05771 whole entry): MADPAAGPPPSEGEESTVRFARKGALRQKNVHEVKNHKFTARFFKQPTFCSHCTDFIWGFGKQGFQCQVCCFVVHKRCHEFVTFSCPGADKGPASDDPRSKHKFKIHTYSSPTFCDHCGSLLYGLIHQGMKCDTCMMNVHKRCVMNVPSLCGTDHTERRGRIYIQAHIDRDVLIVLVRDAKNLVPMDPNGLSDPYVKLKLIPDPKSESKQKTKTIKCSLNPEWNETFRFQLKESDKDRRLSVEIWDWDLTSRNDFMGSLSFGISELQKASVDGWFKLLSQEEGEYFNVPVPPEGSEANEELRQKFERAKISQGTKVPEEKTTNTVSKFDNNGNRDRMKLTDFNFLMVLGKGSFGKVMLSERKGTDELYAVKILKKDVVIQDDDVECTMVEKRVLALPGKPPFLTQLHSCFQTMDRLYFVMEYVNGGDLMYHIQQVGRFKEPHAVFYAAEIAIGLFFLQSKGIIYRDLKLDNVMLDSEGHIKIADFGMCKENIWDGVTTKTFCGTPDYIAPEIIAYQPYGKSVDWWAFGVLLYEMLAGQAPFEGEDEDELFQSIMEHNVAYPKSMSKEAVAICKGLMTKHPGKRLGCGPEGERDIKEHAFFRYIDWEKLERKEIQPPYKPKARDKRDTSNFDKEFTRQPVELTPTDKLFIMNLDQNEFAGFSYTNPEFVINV

[10] = biological target: Receptor-interacting serine/threonine-protein kinase 3 (Homo sapiens, UniProt Q9Y572)
Sequence of Receptor-interacting serine/threonine-protein kinase 3 (Q9Y572 whole entry): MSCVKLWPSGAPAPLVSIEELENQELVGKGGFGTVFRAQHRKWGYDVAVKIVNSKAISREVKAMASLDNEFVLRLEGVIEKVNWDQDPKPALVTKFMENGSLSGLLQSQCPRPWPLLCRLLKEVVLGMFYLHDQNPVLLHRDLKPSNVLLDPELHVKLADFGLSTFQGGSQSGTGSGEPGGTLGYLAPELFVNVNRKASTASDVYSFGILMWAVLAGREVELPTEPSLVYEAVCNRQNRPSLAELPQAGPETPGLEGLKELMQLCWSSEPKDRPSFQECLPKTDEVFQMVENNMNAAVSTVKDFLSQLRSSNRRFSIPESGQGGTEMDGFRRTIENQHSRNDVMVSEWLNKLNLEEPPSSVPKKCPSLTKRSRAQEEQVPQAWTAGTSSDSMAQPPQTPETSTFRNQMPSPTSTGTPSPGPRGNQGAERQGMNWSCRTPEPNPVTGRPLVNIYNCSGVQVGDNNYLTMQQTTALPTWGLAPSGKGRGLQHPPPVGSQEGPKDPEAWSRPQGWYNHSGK
Also: in the data inactive means no Kd found up to 30 µM.

| Kd [1] | Kd [2] | Kd [3] | Kd [4] | Kd [5] | Kd [6] | Kd [7] | Kd [8] | Kd [9] | Kd [10] | Compound |
| --- | --- | --- | --- | --- | --- | --- | --- | --- | --- | --- |
| > 30 µM (inactive) | > 30 µM (inactive) | > 30 µM (inactive) | > 30 µM (inactive) | > 30 µM (inactive) | > 30 µM (inactive) | > 30 µM (inactive) | > 30 µM (inactive) | > 30 µM (inactive) | 2.46 µM (active) | COc1cc2nccc(Oc3ccc(NC(=O)C4(C(=O)Nc5ccc(F)cc5)CC4)cc3)c2cc1OC [CABOZANTINIB] |
| > 30 µM (inactive) | > 30 µM (inactive) | > 30 µM (inactive) | > 30 µM (inactive) | > 30 µM (inactive) | > 30 µM (inactive) | > 30 µM (inactive) | > 30 µM (inactive) | > 30 µM (inactive) | > 30 µM (inactive) | CNC(=O)c1cccc(-c2ccc3c(N4CCOC[C@@H]4C)nc(N4CCOC[C@@H]4C)nc3n2)c1 [VISTUSERTIB] |
| > 30 µM (inactive) | > 30 µM (inactive) | > 30 µM (inactive) | > 30 µM (inactive) | > 30 µM (inactive) | > 30 µM (inactive) | > 30 µM (inactive) | > 30 µM (inactive) | > 30 µM (inactive) | > 30 µM (inactive) | S=C(NCc1ccc2c(c1)OCO2)N1CCN(c2ncnc3c2oc2ccccc23)CC1 [AMUVATINIB] |
| > 30 µM (inactive) | > 30 µM (inactive) | > 30 µM (inactive) | > 30 µM (inactive) | > 30 µM (inactive) | > 30 µM (inactive) | > 30 µM (inactive) | 0.816 µM | > 30 µM (inactive) | > 30 µM (inactive) | CC(C)(O)CC(=O)NCCn1ccc2ncnc(Nc3ccc(Oc4cccc(C(F)(F)F)c4)c(Cl)c3)c21 [TAK-285] |
| > 30 µM (inactive) | > 30 µM (inactive) | > 30 µM (inactive) | > 30 µM (inactive) | > 30 µM (inactive) | > 30 µM (inactive) | > 30 µM (inactive) | > 30 µM (inactive) | > 30 µM (inactive) | > 30 µM (inactive) | COc1cc2ncnc3c2cc1OCCCCCN(C)Cc1ccc(Br)cc1N3 [JNJ-26483327] |
| > 30 µM (inactive) | > 30 µM (inactive) | > 30 µM (inactive) | > 30 µM (inactive) | > 30 µM (inactive) | > 30 µM (inactive) | > 30 µM (inactive) | > 30 µM (inactive) | > 30 µM (inactive) | 1.7 µM (active) | O=C(Nc1ccc(OC(F)(F)F)cc1)c1sccc1NCc1ccnc2ccccc12 [OSI-930] |
| > 30 µM (inactive) | > 30 µM (inactive) | 1.95 µM | > 30 µM (inactive) | > 30 µM (inactive) | > 30 µM (inactive) | > 30 µM (inactive) | > 30 µM (inactive) | > 30 µM (inactive) | > 30 µM (inactive) | CCN(CCCOc1ccc2c(Nc3cc(CC(=O)Nc4cccc(F)c4)n[nH]3)ncnc2c1)CCOP(=O)(O)O [BARASERTIB] |
| > 30 µM (inactive) | > 30 µM (inactive) | > 30 µM (inactive) | > 30 µM (inactive) | > 30 µM (inactive) | > 30 µM (inactive) | > 30 µM (inactive) | > 30 µM (inactive) | > 30 µM (inactive) | 3.64 µM (active) | COc1cc2ncnc(Nc3ccc(F)c(Cl)c3)c2cc1NC(=O)/C=C/CN1CCCCC1 [DACOMITINIB ANHYDROUS] |
| > 30 µM (inactive) | > 30 µM (inactive) | > 30 µM (inactive) | > 30 µM (inactive) | > 30 µM (inactive) | > 30 µM (inactive) | > 30 µM (inactive) | > 30 µM (inactive) | > 30 µM (inactive) | > 30 µM (inactive) | COc1ccc2c(OCc3nnc4ccc(-c5ccccc5)nn34)ccnc2c1 [AMG-208] |
| > 30 µM (inactive) | > 30 µM (inactive) | > 30 µM (inactive) | > 30 µM (inactive) | > 30 µM (inactive) | > 30 µM (inactive) | > 30 µM (inactive) | > 30 µM (inactive) | > 30 µM (inactive) | > 30 µM (inactive) | O=C(NC[C@H](O)CO)c1ccncc1Nc1ccc(I)cc1F [PIMASERTIB] |
| > 30 µM (inactive) | > 30 µM (inactive) | > 30 µM (inactive) | > 30 µM (inactive) | > 30 µM (inactive) | > 30 µM (inactive) | > 30 µM (inactive) | > 30 µM (inactive) | > 30 µM (inactive) | > 30 µM (inactive) | C#Cc1cccc(Nc2ncnc3cc4c(cc23)OCCOCCOCCO4)c1 [ICOTINIB] |

| Compound | Kd [1] | Kd [2] | Kd [3] | Kd [4] | Kd [5] | Kd [6] | Kd [7] | Kd [8] | Kd [9] | Kd [10] |
| --- | --- | --- | --- | --- | --- | --- | --- | --- | --- | --- |
| C=CC(=O)Nc1cc(Nc2nccc(-c3cn(C)c4ccccc34)n2)c(OC)cc1N(C)CCN(C)C [OSIMERTINIB] | > 30 µM (inactive) | > 30 µM (inactive) | > 30 µM (inactive) | > 30 µM (inactive) | > 30 µM (inactive) | > 30 µM (inactive) | > 30 µM (inactive) | > 30 µM (inactive) | > 30 µM (inactive) | > 30 µM (inactive) |
